Data on 5 molecules can be found in patent US7960369B2, “Receptor function regulator” (Takeda Pharmaceutical Company Limited, priority 2002, dated 2011).

The target in one data set is T1, human-derived GPR40 (Homo sapiens, UniProt O14842).
T1 construct: expressed in transfected cells; host or cells: CHO-K1, transient transfection with lipofectamine
Description: Reactivity of fatty acid to human-derived GPR40, intracellular calcium by FLIPR in transfected CHO-K1 cells. The class given is cell-based. Particulars: for activity in intracellular calcium ion mobilization assay using CHO cell expressing GPR40 (GPR40 agonistic activity): as stated in Experimental Example 6. How it is done: Unless specifically indicated, CHO-K1 cell line was cultured using Ham's F-12 medium (Invitrogen) containing 10% fetal calf serum (Invitrogen). The day before transfection, 4.5×10^5 per 10 cm^2 of cells were seeded, and incubated at 37° C. for not less than 15 hrs in a CO2 incubator adjusted to 5% CO2 concentration. The transfection was performed using a lipofectamine reagent (Invitrogen) and according to the reagent attached method. When a 6-well plate was used for a culture plate, transfection was performed in the following manner. First two 1.5 ml volume tubes were prepared, and 100 μl of Opti-MEM-I medium (Invitrogen) was dispensed. Then, […] of an expression vector was added to one tube and 6 μl of a lipofectamine reagent was added to the other tube. They were mixed and stood still at room temperature for 20 min. A mixed solution for transfection containing this solution and Opti-MEM-I medium (800 μl) was added to CHO-K1 cell previously washed with Opti-MEM-I medium, and incubated in a CO2 incubator for 6 hrs. The incubated cells were rinsed with PBS (Invitrogen), detached with 0.05% trypsin-EDTA solution (Invitrogen), recovered by centrifugation. The obtained cells were counted, diluted such that 5×10^4 cells were contained per 200 μl of the medium, dispensed to black walled 96-well plate (Costar) at 200 μl per well, incubated overnight in a CO2 incubator. Various test samples were added to CHO-K1 cells transiently expressing the receptor by the above-mentioned transfection step, and changes in the intracellular calcium concentration then was measured using FLIPR (Molecular Device). For measurement of changes in intracellular calcium concentration by FLIPR, the following pretreatment was applied. First, an assay buffer for adding fluorescence dye Fluo-3AM (DOJIN) to the cell, or washing the cell immediately before FLIPR assay was prepared. To a solution (hereinafter HBSS/HEPES solution) obtained by adding 20 ml of 1M HEPES (pH 7.4) (DOJIN) to 1000 ml of HBSS (Invitrogen) was added a solution (10 ml) obtained by dissolving probenecid (710 mg, Sigma) in 1N NaOH (5 ml) and adding and mixing with HBSS/HEPES solution (5 ml) and the obtained solution was used as an assay buffer. Then, Fluo-3AM (50 μg) was dissolved in 21 μl of DMSO (DOJIN), and an equal amount of 20% pluronic acid (Molecular Probes) was added. The mixture was added to an assay buffer (10.6 ml) supplemented with 105 μl of fetal calf serum to give a fluorescence dye solution. The medium of the CHO-KL cell after transfection treatment was removed, a fluorescence dye solution was immediately dispensed at 100 μl per well and incubated in a CO2 incubator for 1 hr to incorporate the fluorescence dye into the cell. The incubated cells were washed with the above-mentioned assay buffer and set on FLIPR. The test sample to be added to receptor expressing CHO-KL cell was prepared using the assay buffer and simultaneously set on FLIPR. After the above-mentioned pretreatment, changes in the intracellular calcium concentration after addition of various test samples were measured by FLIPR.
In general terms: Calcium flux is commonly read through the fluorescence of an indicator in the cells.

The test system of data set [1] is mouse insulinoma MIN6 cell. Description: Insulin secretagogue effect of free fatty acid in mouse insulinoma MIN6 cell (RIA). Particulars: 300 μM-1000 μM free fatty acid-BSA (4:1), 11 mM glucose, 90 min (or 60 min). The class given is cell-based. Here is the method: Unless otherwise specified, MIN6 cell was incubated in DMEM (high glucose, Invitrogen) containing 15% FCS (Trace Scientific Ltd.), 55 μM 2-mercaptoethanol, 100 U/ml penicillin, and 100 μg/ml streptomycin. Min6 cells were seeded in a 96 well plate at 10^5 cells per well, and incubated at 37° C. for 3 days in a CO2 incubator adjusted to 5% CO2 concentration. The medium was exchanged to RPMI1640 (glucose-free, Invitrogen) containing 10% FCS (Trace Scientific Ltd.), 5.5 mM glucose, 100 U/ml penicillin and 100 μg/ml streptomycin and the cells were further incubated for 24 hrs. The medium was aspirated, free fatty acid-bovine serum albumin (BSA) mixed solution (4:1, molar ratio) diluted with RPMI1640 (glucose-free, Invitrogen) containing 10% FCS (Trace Scientific Ltd.), 11 mM glucose, 100 U/ml penicillin, and 100 μg/ml streptomycin was added to the cells and reacted at 37° C. for 90 min. (or 60 min.) in a CO2 incubator adjusted to 5% CO2 concentration. The 96 well plate after reaction was centrifuged at 1500 rpm for 5 min. and the culture supernatant was recovered. The insulin amount secreted in this culture supernatant liquid was determined by radioimmunoassay (RIA) using a rat insulin RIA system (Amersham Pharmacia Biotech).

The subject of data set [2] is mouse pancreatic β cell line MIN6. Description: Promotion of insulin secretion from MIN6 (insulin immunoassay). The class given is cell-based. Particulars: MIN6, KRBH with 22 mM glucose, 90 min. How it is done:
(§1) Mouse pancreatic β cell line MIN6 cultured in a flask was detached with PBS containing 2.5 mM EDTA, and seeded and incubated in a 96 well plate for 2 days. The medium used was obtained by adding 15% fetal bovine serum (ThermoTrace), […] 2-mercaptoethanol (Invitrogen), 20 mM HEPES pH 7.3, 100 U/ml penicillin and 100 μg/ml streptomycin to Dulbecco's Modified Eagle Medium (DMEM, Invitrogen) containing 4.5 g/l of glucose. The cells were washed twice with modified Krebs-Ringer bicarbonate buffer (KRBH, 116 mM NaCl, 4.7 mM KCl, 1.2 mM KH2PO4, 1.2 mM MgSO4, 2.5 mM CaCl2, 25 mM NaHCO3, 24 mM HEPES pH 7.3) and preincubated at 37° C. under 5% CO2 conditions for 30 min. Fatty acid diluted and prepared with a buffer obtained by adding 22 mM glucose to the above-mentioned KRBH was added to the cell after preincubation and the cells were incubated at 37° C. under 5% CO2 conditions for 90 min. After incubation, the cell supernatant was recovered and cryopreserved. The insulin content of the supernatant was measured using a commercially available insulin immunoassay kit (Amersham Pharmacia Biotech).
as §1, with “(KBH,” for “(KRBH,”, “The compound” for “Fatty acid”

Data set [3] concerns siRNA-introduced MIN6 cell. Put plainly: Insulin secretion enhancing activity of fatty acid in siRNA-introduced MIN6. Format: cell-based, mouse. How it is done: (§2) The expression amount of mouse GPR40-GFP was detected by the following enzyme immunoassay. The culture supernatant was discarded, washed with HBSS (Invitrogen), fixed with 0.01% glutaraldehyde (Wako Pure Chemical Industries, Ltd.) for 5 min., and blocked with PBS (TAKARA SHUZO) containing 2% BSA. 500-fold diluted anti-GFP monoclonal antibody 3E6 (NIPPON GENE CO., LTD.) was added and the cells were incubated at room temperature for 2 hrs., washed and 500-fold diluted HRP-labeled anti-mouse IgG antibody (ICN) was added, and the cells were incubated at room temperature for 2 hrs. After washing, TMB microwell peroxydase substrate (Funakoshi) was added and, after incubation for 30 min., sulfuric acid was added to stop the color developing reaction, and the absorbance at 450 nm was measured.
as §1
Insulin secretion enhancing activity in MIN6 cell, into which m40i103 was introduced using HVJ Envelope VECTOR KIT GenomONE based on the method of Experimental Example 5, was examined. The insulin secretion enhancing activity by fatty acid was examined by the method of Experimental Example 6.

For data set [4], the system named is mouse GPR40-GFP fused protein. Put plainly: Suppression of expression of mouse GPR40-GFP fused protein by siRNA in CHO cells (enzyme immunoassay). The class given is cell-based. Particulars: siRNA 2.86 Pmol/0.5 μl or 8.57 Pmol/1.5 μl introduced into mouse GPR40-GFP expressing CHO cell; absorbance at 450 nm. How it is done:
as §2, with “CHO cell expressing fused protein of mouse GPR40 and GFP prepared by a method known per se was seeded in a 96 well plate at 3×10^4/well and incubated for one day. siRNA of various sequences (Dharmacon) (concentration of 2.86 Pmol/0.5 μl or 8.57 Pmol/1.5 μl) prepared using HVJ Envelope VECTOR KIT GenomONE™ ([…] SANGYO) and according to the report of Elbasir et al. (Nature 411 (6836), 494-498 (2001)) was introduced into the cells and the cells were further incubated for one day. The expression” for “The expression”

T1 sequence (O14842 whole entry): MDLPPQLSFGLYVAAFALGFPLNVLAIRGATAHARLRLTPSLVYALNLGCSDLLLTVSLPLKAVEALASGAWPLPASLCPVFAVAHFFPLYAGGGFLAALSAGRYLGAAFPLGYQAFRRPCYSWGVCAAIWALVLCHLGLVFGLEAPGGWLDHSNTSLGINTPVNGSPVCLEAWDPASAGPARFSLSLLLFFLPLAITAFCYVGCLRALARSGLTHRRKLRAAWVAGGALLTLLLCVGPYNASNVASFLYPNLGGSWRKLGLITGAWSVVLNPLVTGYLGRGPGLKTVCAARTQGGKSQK

In the case of `CCCCCCCC/C=C\CCCCCCCC(=O)O` [oleic acid], the “response (increase in intracellular calcium concentration) of CHO-K1 cell expressing the GPR40 receptor” value at human-derived GPR40 (added at 10^−5M-10^−6M, FLIPR, control-vector cells showed no response) is “specifically responds”. On human-derived GPR40, the “activity in intracellular calcium ion mobilization assay using CHO cell expressing GPR40 (GPR40 agonistic activity)” value is recorded as “remarkable activity”. The “insulin secretion by MIN6 cell” value in data set [1] is listed as “promoted”. Besides, the “insulin secretion enhancing activity” value in data set [2] is on record as “significant insulin secretion enhancing activity”.

Consider `CCCCCCCCCCCCCCCC(=O)O` [palmitic acid], for which the “insulin secretion by MIN6 cell” value in data set [1] is “promoted”.

With `CCCCC/C=C\C/C=C\C/C=C\CCCCC(=O)O` [γ-linolenic acid], the “activity in intracellular calcium ion mobilization assay using CHO cell expressing GPR40 (GPR40 agonistic activity)” value on human-derived GPR40 is listed as “remarkable activity”. The “insulin secretion by MIN6 cell” value in data set [1] is on record as “promoted”. The “insulin secretion enhancing activity” value in data set [2] is reported as “significant insulin secretion enhancing activity”. The “insulin secretion enhancing activity of fatty acid” value in data set [3] (MIN6 into which GPR40 specific siRNA m40i103 was introduced) is “no longer showed insulin secretion enhancing activity”; in data set [3] (MIN6 into which random sequence Scramble II duplex siRNA was introduced), “retention of the insulin secretion enhancing activity”.

Consider “m40i103: "a mouse GPR40 specific siRNA (sense strand is SEQ ID NO: 23, antisense strand is SEQ ID NO: 24)" (sense CGCCAGUUGUGACAUUCUUTT; antisense TTGCGGUCAACACUGUAAGAA; chemistry not given here; one strand is listed 3' to 5')”, for which the “mouse GPR40-GFP expression amount” value in data set [4] is listed as “lower GPR40-GFP expression amount”. Besides, the “effect of siRNA introduction on insulin secretion enhancing activity by linoleic acid and γ-linolenic acid” value in data set [3] (siRNA introduced into MIN6 with HVJ Envelope VECTOR KIT GenomONE) is listed as “no longer showed insulin secretion enhancing activity”.

As to “m40i256: mouse GPR40 specific siRNA "(sense strand is SEQ ID NO: 25, antisense strand is SEQ ID NO: 26)" (sense CUUGUUAGCCAUCCGAGGCTT; antisense TTGAACAATCGGTAGGCTCCG; chemistry not given here; one strand is listed 3' to 5')”, the “mouse GPR40-GFP expression amount” value in data set [4] was “lower GPR40-GFP expression amount”.
